# From PubChem BioAssay (NCI)
#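 In this assay, cells in 96-well plates receive the compound at five concentrations for 48 hours. Endpoints are linearly interpolated between the surrounding concentrations. GI50: concentration for 50% inhibition of growth. TGI: concentration producing complete growth inhibition.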
# Key:
# Test in all cases: NCI tumour cell line growth inhibition, 48 h
# UACC-257 melanoma = system: UACC-257 melanoma
# HS 578T breast = system: HS 578T breast
# HCC-2998 colon = system: HCC-2998 colon
# SF-268 CNS = system: SF-268 CNS
# MCF7 breast = system: MCF7 breast
# MALME-3M melanoma = system: MALME-3M melanoma
# UACC-62 melanoma = system: UACC-62 melanoma
# SK-OV-3 ovarian = system: SK-OV-3 ovarian
# OVCAR-8 ovarian = system: OVCAR-8 ovarian
# OVCAR-5 ovarian = system: OVCAR-5 ovarian
# RXF 393 renal = system: RXF 393 renal
# NCI-H226 lung = system: NCI-H226 lung
# IGROV1 ovarian = system: IGROV1 ovarian
# HCT-116 colon = system: HCT-116 colon
# M14 melanoma = system: M14 melanoma
# NCI/ADR-RES ovarian = system: NCI/ADR-RES ovarian
# NCI-H460 lung = system: NCI-H460 lung
# CAKI-1 renal = system: CAKI-1 renal
# BT-549 breast = system: BT-549 breast
# A498 renal = system: A498 renal
# MDA-MB-435 = system: MDA-MB-435
# HCT-15 colon = system: HCT-15 colon
# TK-10 renal = system: TK-10 renal
# SK-MEL-5 melanoma = system: SK-MEL-5 melanoma
# ACHN renal = system: ACHN renal
# RPMI-8226 leukemia = system: RPMI-8226 leukemia
# PC-3 prostate = system: PC-3 prostate
# NCI-H522 lung = system: NCI-H522 lung
# CCRF-CEM leukemia = system: CCRF-CEM leukemia
# SW-620 colon = system: SW-620 colon
# SK-MEL-28 melanoma = system: SK-MEL-28 melanoma
# SN12C renal = system: SN12C renal
# HOP-62 NSCLC = system: HOP-62 NSCLC
# UO-31 renal = system: UO-31 renal
# SF-295 CNS = system: SF-295 CNS
# LOX IMVI melanoma = system: LOX IMVI melanoma
# DU-145 prostate = system: DU-145 prostate
# OVCAR-4 ovarian = system: OVCAR-4 ovarian
# U251 CNS = system: U251 CNS
# HL-60(TB) leukemia = system: HL-60(TB) leukemia
# T-47D breast = system: T-47D breast
# MOLT-4 leukemia = system: MOLT-4 leukemia
# SK-MEL-2 melanoma = system: SK-MEL-2 melanoma
# HT29 colon = system: HT29 colon
# K-562 leukemia = system: K-562 leukemia
# MDA-MB-231 breast = system: MDA-MB-231 breast
# SNB-75 CNS = system: SNB-75 CNS
# HOP-92 NSCLC = system: HOP-92 NSCLC
# KM12 colon = system: KM12 colon
# A549 NSCLC = system: A549 NSCLC
# SNB-19 CNS = system: SNB-19 CNS
# COLO 205 colon = system: COLO 205 colon
# 786-0 renal = system: 786-0 renal
# SF-539 CNS = system: SF-539 CNS
# OVCAR-3 ovarian = system: OVCAR-3 ovarian
# SR leukemia = system: SR leukemia
# EKVX NSCLC = system: EKVX NSCLC
compound,measurement,setting,value
Cc1ccc(-c2nc(C(Cl)Cl)nc3cc(-c4ccccc4)nn23)cc1,GI50,UACC-257 melanoma,35.3 µM
same,TGI,UACC-257 melanoma,> 100 µM
same,GI50,HS 578T breast,56.9 µM
same,TGI,HS 578T breast,> 100 µM
same,GI50,HCC-2998 colon,6.05 µM
same,TGI,HCC-2998 colon,20 µM
same,GI50,SF-268 CNS,24.6 µM
same,TGI,SF-268 CNS,> 100 µM
same,GI50,MCF7 breast,18.1 µM
same,TGI,MCF7 breast,> 100 µM
same,GI50,MALME-3M melanoma,23.3 µM
same,TGI,MALME-3M melanoma,58.9 µM
same,GI50,UACC-62 melanoma,81.8 µM
same,TGI,UACC-62 melanoma,> 100 µM
same,GI50,SK-OV-3 ovarian,20.9 µM
same,TGI,SK-OV-3 ovarian,58.7 µM
same,GI50,OVCAR-8 ovarian,15.3 µM
same,TGI,OVCAR-8 ovarian,90.1 µM
same,GI50,OVCAR-5 ovarian,24.2 µM
same,TGI,OVCAR-5 ovarian,> 100 µM
same,GI50,RXF 393 renal,10.6 µM
same,TGI,RXF 393 renal,24 µM
same,GI50,NCI-H226 lung,75.2 µM
same,TGI,NCI-H226 lung,> 100 µM
same,GI50,IGROV1 ovarian,36.3 µM
same,TGI,IGROV1 ovarian,> 100 µM
same,GI50,HCT-116 colon,15.6 µM
same,TGI,HCT-116 colon,> 100 µM
same,GI50,M14 melanoma,20.6 µM
same,TGI,M14 melanoma,50.2 µM
same,GI50,NCI/ADR-RES ovarian,13.5 µM
same,TGI,NCI/ADR-RES ovarian,> 100 µM
same,GI50,NCI-H460 lung,7.26 µM
same,TGI,NCI-H460 lung,30.3 µM
same,GI50,CAKI-1 renal,16.2 µM
same,TGI,CAKI-1 renal,58.3 µM
same,GI50,BT-549 breast,30.7 µM
same,TGI,BT-549 breast,> 100 µM
same,GI50,A498 renal,17.4 µM
same,TGI,A498 renal,38.9 µM
same,GI50,MDA-MB-435,25.3 µM
same,TGI,MDA-MB-435,98 µM
same,GI50,HCT-15 colon,10.5 µM
same,TGI,HCT-15 colon,72.3 µM
same,GI50,TK-10 renal,33.3 µM
same,TGI,TK-10 renal,> 100 µM
same,GI50,SK-MEL-5 melanoma,> 100 µM
same,TGI,SK-MEL-5 melanoma,> 100 µM
same,GI50,ACHN renal,7.54 µM
same,TGI,ACHN renal,31.8 µM
same,GI50,RPMI-8226 leukemia,35.9 µM
same,TGI,RPMI-8226 leukemia,> 100 µM
same,GI50,PC-3 prostate,23.7 µM
same,TGI,PC-3 prostate,> 100 µM
same,GI50,NCI-H522 lung,14.5 µM
same,TGI,NCI-H522 lung,42.8 µM
same,GI50,CCRF-CEM leukemia,47.7 µM
same,TGI,CCRF-CEM leukemia,> 100 µM
same,GI50,SW-620 colon,9.97 µM
same,TGI,SW-620 colon,55.8 µM
same,GI50,SK-MEL-28 melanoma,27.2 µM
same,TGI,SK-MEL-28 melanoma,74.6 µM
same,GI50,SN12C renal,98.9 µM
same,TGI,SN12C renal,> 100 µM
same,GI50,HOP-62 NSCLC,16.5 µM
same,TGI,HOP-62 NSCLC,62.3 µM
same,GI50,UO-31 renal,> 100 µM
same,TGI,UO-31 renal,> 100 µM
same,GI50,SF-295 CNS,24 µM
same,TGI,SF-295 CNS,71.2 µM
same,GI50,LOX IMVI melanoma,22.4 µM
same,TGI,LOX IMVI melanoma,> 100 µM
same,GI50,DU-145 prostate,4.21 µM
same,TGI,DU-145 prostate,29.7 µM
same,GI50,OVCAR-4 ovarian,17.9 µM
same,TGI,OVCAR-4 ovarian,73.1 µM
same,GI50,U251 CNS,9.5 µM
same,TGI,U251 CNS,34.1 µM
same,GI50,HL-60(TB) leukemia,6.5 µM
same,TGI,HL-60(TB) leukemia,> 100 µM
same,GI50,T-47D breast,28.3 µM
same,TGI,T-47D breast,> 100 µM
same,GI50,MOLT-4 leukemia,18.2 µM
same,TGI,MOLT-4 leukemia,96.7 µM
same,GI50,SK-MEL-2 melanoma,> 100 µM
same,TGI,SK-MEL-2 melanoma,> 100 µM
same,GI50,HT29 colon,7.41 µM
same,TGI,HT29 colon,35.2 µM
same,GI50,K-562 leukemia,22.4 µM
same,TGI,K-562 leukemia,> 100 µM
same,GI50,MDA-MB-231 breast,20.5 µM
same,TGI,MDA-MB-231 breast,> 100 µM
same,GI50,SNB-75 CNS,> 100 µM
same,TGI,SNB-75 CNS,> 100 µM
same,GI50,HOP-92 NSCLC,23.9 µM
same,TGI,HOP-92 NSCLC,79.4 µM
same,GI50,KM12 colon,17.8 µM
same,TGI,KM12 colon,66.4 µM
same,GI50,A549 NSCLC,10 µM
same,TGI,A549 NSCLC,28.1 µM
same,GI50,SNB-19 CNS,19.7 µM
same,TGI,SNB-19 CNS,> 100 µM
same,GI50,COLO 205 colon,10.1 µM
same,TGI,COLO 205 colon,23.4 µM
same,GI50,786-0 renal,> 100 µM
same,TGI,786-0 renal,> 100 µM
same,GI50,SF-539 CNS,61.1 µM
same,TGI,SF-539 CNS,> 100 µM
same,GI50,OVCAR-3 ovarian,13.4 µM
same,TGI,OVCAR-3 ovarian,31.5 µM
same,GI50,SR leukemia,9.91 µM
same,TGI,SR leukemia,> 100 µM
same,GI50,EKVX NSCLC,17.8 µM
same,TGI,EKVX NSCLC,57.8 µM
